pIC50: −log10 of the molar value.
Columns and labels:
Test in all cases: Cell viability assay (CCK-8), IC50
Format in all cases: cell-based
SUM-159 cells = settings: Homo sapiens, SUM159, 6 days, medium replenished every 2 days
Method: (§1) Human breast cancer cell lines MDA-MB-231 and SUM-159, and human ovarian cancer cell lines OVCAR5 and SKOV3 were obtained from the American Type Culture Collection (ATCC). MDA-MB-231 cells were cultured in L-15 medium with 10% fetal bovine serum (FBS), incubated at 37 °C in a humidified incubator without additional CO2. SUM-159 cells were maintained in Dulbecco’s modified Eagle’s medium (DMEM) containing 10% FBS, and OVCAR5 and SKOV3 cells were incubated in Roswell Park Memorial Institute (RPMI)-1640 medium with 10% FBS and cultured at 37 °C in a humidified incubator containing 5% CO2.
(§2) Cell viability assay was performed as described before. Briefly, 2500/well of breast or ovarian cancer cells were seeded into a 96-well plate; grown overnight; treated with indicated concentration of Olaparib, LY2835219, ZC22, LP-1, GC-24, or cisplatin alone or together for an indicated amount of time; and then incubated with Cell Counting kit-8 (CCK-8) substrate (Dojindo, Kumamoto, Kyushu Island, Japan) for 1–2 h at 37 °C. Cell viability was calculated by the absorbance at 450 nm measured by the GloMax Explorer (Promega, Madison, WI, USA). Cells without treatment were set as 100%, and medium control (no cells) was set as 0%.
(§3) Figure 1 Synthesis strategy and activity assay of the novel compounds targeting both PARP and CDK4/6. (A) Synthesis strategy of the three novel compounds GC-24, LP-1, and ZC-22. (B) IC50 of GC-24, LP-1, and ZC-22 in breast and ovarian cancer cells. Cells were treated with increasing concentrations of GC-24, LP 1, or ZC-22 for 6 days with replenishment of medium every 2 days. Cell proliferation was analyzed by CCK-8 assays. (C) The reagents and conditions used for the chemical synthesis of ZC-22 in this study: (a) Pd(AcO)2, BINAP, CS2CO3, 1,4-Dioxane, 100 °C, 12 h; (b) CF3COOH, DCM, Room temperature, 6 h; (c) HOBt, EDCI, DIPEA, DMF, Room temperature, 12 h. TEXT PRINTED IN THE PICTURE: (B) LP-1: MDA-MB-231 IC50 (μM): >50; SUM-159 IC50 (μM): 7.780; OVCAR5 IC50 (μM): 10.11; SKOV3 IC50 (μM): 10.16 | (B) GC-24: MDA-MB-231 IC50 (μM): 33.77; SUM-159 IC50 (μM): 17.77; OVCAR5 IC50 (μM): 26.08; SKOV3 IC50 (μM): >50 | (B) ZC-22: MDA-MB-231 IC50 (μM): 3.608; SUM-159 IC50 (μM): 0.435; OVCAR5 IC50 (μM): 0.758; SKOV3 IC50 (μM): 0.542
(§4) Figure 2 ZC-22 suppresses proliferation of breast and ovarian cancer cells. (A) IC50 of ZC-22, Olaparib, and LY2835219 (Abemaciclib) in breast and ovarian cancer cells. Cells were treated with increasing concentrations of ZC-22, Olaparib, or LY2835219 for 6 days with replenishment of medium every 2 days. Cell proliferation was analyzed by CCK-8 assays. (B) Cell proliferation assay of breast and ovarian cancer cells with indicated treatment. MDA-MB-231 cells were treated with 2 μM Olaparib (OLA) or LY2835219 (LY-2) alone or together (OLA + LY-2) or with ZC-22 alone for 48 or 72 h. SUM-159, OVCAR5, and SKOV3 cells were treated with 0.5 μM OLA or LY-2 alone or together or with ZC-22 alone. Cell proliferation assay was analyzed by CCK-8 assays. Values are means ± SD, n = 3. ns, not significant, * p < 0.05, ** p < 0.01 and *** p < 0.001 for comparisons with the DMSO-treated group using an unpaired t-test. TEXT PRINTED IN THE PICTURE: (A) ZC-22: MDA-MB-231 IC50 (μM): 3.608; SUM-159 IC50 (μM): 0.435; OVCAR5 IC50 (μM): 0.758; SKOV3 IC50 (μM): 0.542 | (A) LY2835219: MDA-MB-231 IC50 (μM): 11.28; SUM-159 IC50 (μM): 0.664; OVCAR5 IC50 (μM): 9.791; SKOV3 IC50 (μM): 1.158 | (A) Olaparib: MDA-MB-231 IC50 (μM): 32.13; SUM-159 IC50 (μM): 19.29; OVCAR5 IC50 (μM): 30.51; SKOV3 IC50 (μM): >50

SKOV3 cells = settings: Homo sapiens, SK-OV-3, 6 days, medium replenished every 2 days
Method: as §1, §2, §3, §4

MDA-MB-231 cells = settings: Homo sapiens, 6 days, medium replenished every 2 days
Method: as §1, §2, §3, §4

OVCAR5 cells = settings: Homo sapiens, OVCAR-5, 6 days, medium replenished every 2 days
Method: as §1, §2, §3, §4

Row | Compound | pIC50 (SUM-159 cells) | pIC50 (SKOV3 cells) | pIC50 (MDA-MB-231 cells) | pIC50 (OVCAR5 cells)
1 | CCN1CCN(Cc2ccc(Nc3ncc(F)c(-c4cc(F)c5nc(C)n(C(C)C)c5c4)n3)nc2)CC1 [LY2835219, Abemaciclib, reference compound] | 6.18 | 5.94 | 4.95 | 5.01
2 | Cc1nc2c(F)cc(-c3nc(Nc4ccc(N5CCN(C(=O)c6cc(Cc7n[nH]c(=O)c8ccccc78)ccc6F)CC5)cn4)ncc3F)cc2n1C(C)C [ZC-22, 4-(4-fluoro-3-(4-(6-((5-fluoro-4-(4-fluoro-1-isopropyl-2-methyl-1H-benzo[d]imidazole-6-yl)pyrimidin-2-yl)amino)pyridin-3-yl)piperazine-1-carbonyl)benzyl)phthalazin-1(2H)-one] | 6.36 | 6.27 | 5.44 | 6.12
